Columns and labels:
Format in all cases: in vivo
[1] = Body weight evaluation in NMDA-induced rat retinal disorder model after oral administration; conditions: 10 nmol NMDA intravitreously, 30 mg/kg orally twice a day for 3 days; for Weight gain (average): from day of NMDA administration to eyeball enucleation, non-treatment group 14.1
Procedure: Over a period from the day of the intravitreous NMDA administration through the eyeball enucleation, each individual animal was weighed once a day. Based on the body weight of the individual animal on the day of the intravitreous NMDA administration, the difference from the body weight on the day of the eyeball enucleation was calculated and the weight gain of each individual animal was calculated (average value). Each group included 4 animals. 5 μL of an NMDA solution dissolved in PBS (10 nmol as NMDA) was administered intravitreously. A 0.5% (w/v) aqueous solution of methyl cellulose was given by a repetitive oral administration twice a day in a volume of 10 mL/kg for 3 days from the day of the intravitreous NMDA administration until 2 days later. On the day of the intravitreous NMDA administration, a 0.5% (w/v) aqueous solution of methyl cellulose was given orally two times which were about 1 hour before the intravitreous NMDA administration and 1 to 2 hours. 5 μL of an NMDA solution dissolved in PBS (10 nmol as NMDA) was administered intravitreously. Each test compound suspended in 0.5% (w/v) methyl cellulose solution was given at a dose of 30 mg/kg by a repetitive oral administration twice a day in a volume of 10 mL/kg for 3 days from the day of the intravitreous NMDA administration until 2 days later. On the day of the intravitreous NMDA administration, each test compound suspended in 0.5% (w/v) methyl cellulose solution was given orally at a dose of 30 mg/kg two times which were about 1 hour before the NMDA administration and 1 to 2 hours. As a control compound, memantine was employed. 5 μL of an NMDA solution in PBS (10 nmol as NMDA) was administered intravitreously. Memantine dissolved in 0.5% (w/v) methyl cellulose solution was given at a dose of 30 mg/kg by a repetitive oral administration twice a day in a volume of 10 mL/kg for 3 days from the day of the intravitreous NMDA administration until 2 days later. On the day of the intravitreous NMDA administration, memantine dissolved in 0.5% (w/v) methyl cellulose solution was given orally at a dose of 30 mg/kg two times which were about 1 hour before the NMDA administration and 1 to 2 hours.

[2] = tested on: neurofilament light chain (NFL) expression level in the retinal tissue; assay: NMDA-induced rat retinal disorder model, quantitative PCR evaluation of NFL expression after intravitreous administration; conditions: 10 nmol NMDA mixed with 15 nmol/eye compound intravitreously, retina isolated 1 day after, NFL corrected by GAPDH, non-treatment group = 100%, NMDA group = 0%
Procedure: In the NMDA-induced rat retinal disorder model, the efficacy of the test compounds were evaluated using as an index the expression level in the retinal tissue of the neurofilament light chain (hereinafter referred to also as “NFL”) which is one of major constituents of the optic nerve axon and is considered to be important in maintaining the morphology of the optic nerve axon. The rat 1 day after the intravitreous administration of NMDA was treated with a 100 mg/kg sodium pentobarbital injection solution by an intraperitoneal administration to accomplish a systemic anesthesia and then the eyeballs were enucleated, and the retina was isolated. […] RR037B). In accordance with the instruction attached to QuantiTect Multiplex PCR Kit (1000) (QIAGEN, catalog No. 204545), QuantiTect Multiplex PCR Master Mix, the synthesized cDNA, the primers/probe for NFL (Sigma, “Ordermade”) and the primers/probe for glycerylaldehyde 3-phosphate dehydrogenase (hereinafter referred to also as “GAPDH”) (Applied Biosystems, Catalog No. 4352338E) were mixed, and a quantitative PCR machine (Applied Biosystems, Catalog No. 7500-03) was employed to conduct a PCR reaction, whereby measuring the expression levels of NFL and GAPDH. From the NFL and GAPDH expression levels thus obtained, a relative NFL expression level was calculated by correcting the NFL expression level based on the housekeeping gene GAPDH expression level in accordance with Equation 2. […] Each group included 1 animal (2 eyeballs). % Relative NFL expression level=(NFL expression level/GAPDH expression level) [Equation 2] % NFL recovery=(EX−EO)/(EP−EO)×100 [Equation 3] wherein EP is a relative NFL expression level in the non-treatment group, EO is a relative NFL expression level in the group of 10 nmol intravitreous NMDA administration and EX is a relative NFL expression level in the group of intravitreous administration of 10 nmol NMDA mixed with each compound. 5 μL of an NMDA solution dissolved in a 30% (v/v) DMSO-containing purified water (10 nmol as NMDA) was administered intravitreously. […]

[3] = tested on: cell count in the retinal ganglion cell layer; assay: NMDA-induced rat retinal disorder model, retinal section evaluation (GCL cell count) after oral administration; conditions: 10 nmol NMDA intravitreously, 30 mg/kg orally twice a day for 3 days, eyeballs enucleated 3 days after NMDA, non-treatment group = 100%, NMDA + base = 0%
Excerpt: A NMDA-induced rat retinal disorder model (Invest. Ophthalmol. Vis. Sci., 2003; 44:385-392) employed widely as an optic nerve disorder model was employed to evaluate the usefulness (retinal nerve cell death inhibiting effect) of the present compound.
A rat [Slc:SD, male, about 7 week-old) was allowed to inhale a gas containing 3 to 4% (v/v) vaporized isoflurane at a rate of 1 to 1.5 L air/min to accomplish a systemic introducing anesthesia, followed by a maintaining anesthesia with 2 to 3% (v/v) isoflurane. Thereafter, 5 μl of a solution of NMDA (Sigma, catalog No. M3262) dissolved at 2 mmol/L in a phosphate buffer (hereinafter referred to also as “PBS”) was given intravitreously (10 nmol as NMDA).
The rat 3 days after the intravitreous administration of the NMDA solution was treated with a 100 mg/kg sodium pentobarbital injection solution by an intraperitoneal administration to accomplish a systemic anesthesia and then the eyeballs were enucleated. The enucleated eyeballs were fixed in a 25%(w/v) glutaraldehyde: 10% (w/v) neutral buffered formalin=1:9 mixture. The fixed eyeballs were embedded with a paraffin and then sliced into retinal sections (3 μm in thickness), which were then subjected to a hematoxylin and eosin staining. Eight retinal sections were taken per eyeball at intervals of 45 μm so that the optic nerve papilla was included. Among these 8 sections, 3 sections were selected randomly, and a selected section was photographed for the retina of 700 to 900 μm in width with its center being located about 1.25 mm from the optic nerve papilla, using which the cell count in the retinal ganglion cell layer (hereinafter referred to also as “GCL cell count”) was calculated (average value). From the resultant GCL cell count, a % GCL cell count reduction inhibition of each test substance was calculated according to Equation 1 while assigning 100% to the non-treatment group and 0% to a group of 10 nmol NMDA given intravitreously+base given orally. Each group included 4 animals (7 to 8 eyeballs).
% GCL cell count reduction inhibition=(NX−NO)/(NU−NO)×100 [Equation 1] […]

SMILES	Weight gain compared with the non-treatment group (in words) [1]	Weight gain (average) [1]	% NFL Recovery (%, average) [2] [%]	% Inhibition of GLC cell count reduction [3] [%]
O=C(O)c1[nH]c2cc(Cl)cc(Cl)c2c1/C=C1\CCN(c2ccccc2)C1=O [Compound B′, sodium (E)-4,6-dichloro-3-((2-oxo-1-phenyl-3-pyrrolidinylidene)methyl)-1H-indole-2-carboxylate]	weight gain almost equivalent to that in the non-treatment group	14.0	80.7	14.8
CC12CC3CC(C)(C1)CC(N)(C3)C2 [memantine, reference compound]	inhibited the weight gain	−3.6	33.6	20.7
O=C(/C=C/c1c(C(=O)O)[nH]c2cc(Cl)cc(Cl)c12)Nc1ccccc1 [Compound A′, Sodium (E)-4,6-dichloro-3-(3-oxo-3-(phenylamino)-1-propenyl)-1H-indole-2-carboxylate]	weight gain almost equivalent to that in the non-treatment group	12.6	86.6	17.0

From patent US20110319463A1, “PREVENTIVE OR THERAPEUTIC AGENTS FOR OPTIC NERVE DISORDERS COMPRISING 4,6-DICHLORO-1H-INDOLE-2-CARBOXYLIC ACID DERIVATIVES OR SALTS THEREOF AS ACTIVE INGREDIENTS” (Saten Pharamaceuticals Co., Ltd., priority 2009, published 2011)
